# Results from the supplement of paper PMC6045584.
# ± gives the standard deviation of the averaged measurements.
# Columns and labels:
# [1] = compound: CC(=O)NCC(=O)N1[C@@H]2CC[C@H]1c1ccc(Nc3ncc(C(F)(F)F)c(NC4CCC4)n3)cc12; test: surviving fraction relative to DMSO-only wells; higher = less growth inhibition; conditions: exposure time: 5 days
# Method in brief: (§1)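 Tumour cell lines were seeded in log phase at 250–500 cells per well into 384-well plates. Starting 24 hours later, inhibitors were present continuously for five days at 0.5, 1, 5, 10, 50, 100, 500 and 1000 nM. Surviving fraction, from CellTiter-Glo luminescence, is normalised to the median of DMSO-only wells. Three screens per line were required, with replicate Pearson r >0.7 and median Z' >0.3 for a line to be kept.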
# PACLITAXEL [2] = compound: T1, CC(=O)O[C@H]1C(=O)[C@@]2(C)[C@H]([C@H](OC(=O)c3ccccc3)[C@]3(O)C[C@H](OC(=O)[C@H](O)[C@@H](NC(=O)c4ccccc4)c4ccccc4)C(C)=C1C3(C)C)[C@]1(OC(C)=O)CO[C@@H]1C[C@@H]2O [PACLITAXEL]; test: as above; conditions: exposure time: 5 days
# Method in brief: as §1
# [3] = compound: CC(=O)c1c(C)c2cnc(Nc3ccc(N4CCNCC4)cn3)nc2n(C2CCCC2)c1=O; test: as above; conditions: exposure time: 5 days
# Method in brief: as §1
# CAMPTOTHECIN [4] = compound: T2, CC[C@@]1(O)C(=O)OCc2c1cc1n(c2=O)Cc2cc3ccccc3nc2-1 [CAMPTOTHECIN]; test: as above; conditions: exposure time: 5 days
# Method in brief: as §1
# YM155 [5] = compound: T3, COCC[n+]1c2c(n(Cc3cnccn3)c1C)C(=O)c1ccccc1C2=O [YM155]; test: as above; conditions: exposure time: 5 days
# Method in brief: as §1
# GEFITINIB [6] = compound: T4, COc1cc2ncnc(Nc3ccc(F)c(Cl)c3)c2cc1OCCCN1CCOCC1 [GEFITINIB]; test: as above; conditions: exposure time: 5 days
# Method in brief: as §1
# OSI-906 [7] = compound: T5, C[C@]1(O)C[C@@H](c2nc(-c3ccc4ccc(-c5ccccc5)nc4c3)c3c(N)nccn32)C1 [OSI-906]; test: as above; conditions: exposure time: 5 days
# Method in brief: as §1
# CELECOXIB [8] = compound: T6, Cc1ccc(-c2cc(C(F)(F)F)nn2-c2ccc(S(N)(=O)=O)cc2)cc1 [CELECOXIB]; test: as above; conditions: exposure time: 5 days
# Method in brief: as §1
# CARBOPLATIN = compound: O=C(O)C1(C(=O)O)CCC1.[NH2-].[NH2-].[Pt+2] [CARBOPLATIN]; test: as above; conditions: exposure time: 5 days
# Method in brief: as §1
# [9] = compound: CC(=O)NCC(=O)N1[C@@H]2CC[C@H]1c1ccc(Nc3ncc(C(F)(F)F)c(NC4CCC4)n3)cc12; test: area under dose-response curve of surviving fraction (unscaled, Aref=0) (surviving fraction x log10(nM)); higher = more resistant; conditions: exposure time: 5 days; dose range 0.5-1000 nM
# Method in brief: (§2)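 Tumour cell lines in 384-well plates were exposed to eight inhibitor concentrations, from 0.5 to 1000 nM, for five days, and viability was read by CellTiter-Glo luminescence in three screens per line. Signals were normalised to DMSO-only wells, and 3-parameter logistic regression in the drc R package fitted dose-response survival curves to the surviving fractions. Area under the curve is given as the unscaled activity area. That area is taken over log10 dose with Aref = 0.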
# PACLITAXEL [10] = compound: T1, PACLITAXEL; test: as above; conditions: exposure time: 5 days; dose range 0.5-1000 nM
# Method in brief: as §2
# CAMPTOTHECIN [11] = compound: T2, CAMPTOTHECIN; test: as above; conditions: exposure time: 5 days; dose range 0.5-1000 nM
# Method in brief: as §2
# YM155 [12] = compound: T3, YM155; test: as above; conditions: exposure time: 5 days; dose range 0.5-1000 nM
# Method in brief: as §2
# GEFITINIB [13] = compound: T4, GEFITINIB; test: as above; conditions: exposure time: 5 days; dose range 0.5-1000 nM
# Method in brief: as §2
# OSI-906 [14] = compound: T5, OSI-906; test: as above; conditions: exposure time: 5 days; dose range 0.5-1000 nM
# Method in brief: as §2
# CELECOXIB [15] = compound: T6, CELECOXIB; test: as above; conditions: exposure time: 5 days; dose range 0.5-1000 nM
# Method in brief: as §2
test system,measurement,setting,value
BT20 BREAST,surviving fraction,[1]; 0.5 nM,1.03 ± 0.028
same,surviving fraction,[1]; 1 nM,0.968 ± 0.062
same,surviving fraction,[1]; 5 nM,1.02 ± 0.09
same,surviving fraction,[1]; 10 nM,0.87 ± 0.051
same,surviving fraction,[1]; 50 nM,0.365 ± 0.054
same,surviving fraction,[1]; 100 nM,0.199 ± 0.038
same,surviving fraction,[1]; 500 nM,0.293 ± 0.041
same,surviving fraction,[1]; 1000 nM,0.291 ± 0.055
same,surviving fraction,PACLITAXEL [2]; 0.5 nM,0.956 ± 0.11
same,surviving fraction,PACLITAXEL [2]; 1 nM,0.718 ± 0.026
same,surviving fraction,PACLITAXEL [2]; 5 nM,0.0893 ± 0.0055
same,surviving fraction,PACLITAXEL [2]; 10 nM,0.0667 ± 0.0057
same,surviving fraction,PACLITAXEL [2]; 50 nM,0.0593 ± 0.0063
same,surviving fraction,PACLITAXEL [2]; 100 nM,0.058 ± 0.01
same,surviving fraction,PACLITAXEL [2]; 500 nM,0.0513 ± 0.0049
same,surviving fraction,PACLITAXEL [2]; 1000 nM,0.0587 ± 0.011
same,surviving fraction,[3]; 0.5 nM,1.12 ± 0.19
same,surviving fraction,[3]; 1 nM,1.06 ± 0.3
same,surviving fraction,[3]; 5 nM,0.955 ± 0.23
same,surviving fraction,[3]; 10 nM,0.982 ± 0.1
same,surviving fraction,[3]; 50 nM,0.981 ± 0.32
same,surviving fraction,[3]; 100 nM,0.924 ± 0.24
same,surviving fraction,[3]; 500 nM,0.916 ± 0.22
same,surviving fraction,[3]; 1000 nM,0.86 ± 0.21
same,surviving fraction,CAMPTOTHECIN [4]; 0.5 nM,0.764 ± 0.067
same,surviving fraction,CAMPTOTHECIN [4]; 1 nM,0.744 ± 0.088
same,surviving fraction,CAMPTOTHECIN [4]; 5 nM,0.492 ± 0.089
same,surviving fraction,CAMPTOTHECIN [4]; 10 nM,0.197 ± 0.015
same,surviving fraction,CAMPTOTHECIN [4]; 50 nM,0.096 ± 0.0052
same,surviving fraction,CAMPTOTHECIN [4]; 100 nM,0.0537 ± 0.0075
same,surviving fraction,CAMPTOTHECIN [4]; 500 nM,0.0213 ± 0.0015
same,surviving fraction,CAMPTOTHECIN [4]; 1000 nM,0.0257 ± 0.0025
same,surviving fraction,YM155 [5]; 0.5 nM,0.907 ± 0.077
same,surviving fraction,YM155 [5]; 1 nM,0.875 ± 0.089
same,surviving fraction,YM155 [5]; 5 nM,0.0757 ± 0.0075
same,surviving fraction,YM155 [5]; 10 nM,0.0613 ± 0.006
same,surviving fraction,YM155 [5]; 50 nM,0.028 ± 0.0017
same,surviving fraction,YM155 [5]; 100 nM,0.025 ± 0.0027
same,surviving fraction,YM155 [5]; 500 nM,0.019 ± 0.002
same,surviving fraction,YM155 [5]; 1000 nM,0.027 ± 0.002
same,surviving fraction,GEFITINIB [6]; 0.5 nM,1.14 ± 0.02
same,surviving fraction,GEFITINIB [6]; 1 nM,1.19 ± 0.063
same,surviving fraction,GEFITINIB [6]; 5 nM,1.13 ± 0.11
same,surviving fraction,GEFITINIB [6]; 10 nM,1.15 ± 0.043
same,surviving fraction,GEFITINIB [6]; 50 nM,1.06 ± 0.011
same,surviving fraction,GEFITINIB [6]; 100 nM,1.06 ± 0.013
same,surviving fraction,GEFITINIB [6]; 500 nM,1.05 ± 0.04
same,surviving fraction,GEFITINIB [6]; 1000 nM,0.984 ± 0.085
same,surviving fraction,OSI-906 [7]; 0.5 nM,0.736 ± 0.051
same,surviving fraction,OSI-906 [7]; 1 nM,0.724 ± 0.058
same,surviving fraction,OSI-906 [7]; 5 nM,0.776 ± 0.05
same,surviving fraction,OSI-906 [7]; 10 nM,0.763 ± 0.073
same,surviving fraction,OSI-906 [7]; 50 nM,1 ± 0.031
same,surviving fraction,OSI-906 [7]; 100 nM,1.05 ± 0.095
same,surviving fraction,OSI-906 [7]; 500 nM,1.23 ± 0.05
same,surviving fraction,OSI-906 [7]; 1000 nM,1.28 ± 0.04
same,surviving fraction,CELECOXIB [8]; 0.5 nM,1.14 ± 0.085
same,surviving fraction,CELECOXIB [8]; 1 nM,1.1 ± 0.035
same,surviving fraction,CELECOXIB [8]; 5 nM,1.08 ± 0.059
same,surviving fraction,CELECOXIB [8]; 10 nM,1.19 ± 0.077
same,surviving fraction,CELECOXIB [8]; 50 nM,1.11 ± 0.072
same,surviving fraction,CELECOXIB [8]; 100 nM,1.22 ± 0.061
same,surviving fraction,CELECOXIB [8]; 500 nM,1.23 ± 0.059
same,surviving fraction,CELECOXIB [8]; 1000 nM,1.07 ± 0.047
same,surviving fraction,CARBOPLATIN; 0.5 nM,1.11 ± 0.04
same,surviving fraction,CARBOPLATIN; 1 nM,1.19 ± 0.12
same,surviving fraction,CARBOPLATIN; 5 nM,1.39 ± 0.49
same,surviving fraction,CARBOPLATIN; 10 nM,1.24 ± 0.04
same,surviving fraction,CARBOPLATIN; 50 nM,1.2 ± 0.088
same,surviving fraction,CARBOPLATIN; 100 nM,1.29 ± 0.14
same,surviving fraction,CARBOPLATIN; 500 nM,1.33 ± 0.16
same,surviving fraction,CARBOPLATIN; 1000 nM,1.11 ± 0.069
same,area under dose-response curve,[9],2.05
same,area under dose-response curve,PACLITAXEL [10],0.614
same,area under dose-response curve,CAMPTOTHECIN [11],0.907
same,area under dose-response curve,YM155 [12],0.651
same,area under dose-response curve,GEFITINIB [13],3.62
same,area under dose-response curve,OSI-906 [14],2.91
same,area under dose-response curve,CELECOXIB [15],3.78
